Columns and labels:
[1] = test system: late watergrass; assay: Test Example 1: herbicidal activity, application before weed generation under submerged conditions (Table 16, symbol A); type: in vivo, late watergrass (Echinochloa oryzicola); conditions: amount of applied herbicide 320 g/ha
Text: (§1) [Test Example 1] Herbicidal Activity Test by Application before Weed Generation under Submerged Conditions After alluvial soil was placed into 1/10000 are of Wagner pot, water was poured and mixed to form a submerged condition having a water depth of 4 cm. Seeds of late watergrass, Japanese bulrush, and oval-leafed pondweed were sowed in a mixed manner in the aforementioned pot, and then 2.5 leaf stage rice plant seedlings were transplanted thereto. On the day of sowing seeds, the emulsion agent of the compound of the present invention prepared according to Formulation Example 2 was diluted with water so as to achieve a predetermined herbicide amount, and the diluted emulsion agent was applied to the surface of the water. The pot was placed in a greenhouse at 25° C. to 30° C. for growth of the plants. Three weeks after the herbicide application, the effect of the herbicide on each plant was evaluated according to the following criteria. Evaluation Criteria 5: Herbicidal rate of 90% or more (almost completely withered) 4: Herbicidal rate of 70% or more and less than 90% 3: Herbicidal rate of 40% or more and less than 70% 2: Herbicidal rate of 20% or more and less than 40% 1: Herbicidal rate of 5% or more and less than 20% 0: Herbicidal rate of 5% or less (almost no effect)

[2] = test system: Japanese bulrush; assay: Test Example 1: herbicidal activity, application before weed generation under submerged conditions (Table 16, symbol B); type: in vivo, Japanese bulrush (Schoenoplectus juncoides); conditions: amount of applied herbicide 320 g/ha
Text: as §1

[3] = test system: oval-leafed pondweed; assay: Test Example 1: herbicidal activity, application before weed generation under submerged conditions (Table 16, symbol C); type: in vivo, oval-leafed pondweed (Monochoria vaginalis); conditions: amount of applied herbicide 320 g/ha
Text: as §1

[4] = test system: barnyard grass; assay: Test Example 3: herbicidal effect by foliage application, Wagner pot (Table 18, symbol H); type: in vivo, barnyard grass (Echinochloa crus-galli)
How it was run: (§2)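 Plants were sown in alluvial soil held under 0.1–0.5 cm standing water and grown 14 days in a greenhouse at 25–30 °C. An emulsifiable formulation, water-diluted to the set dose, was then sprayed onto the foliage, and effects were scored three weeks later using previously defined criteria.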

[5] = test system: Chinese sprangletop; assay: Test Example 3: herbicidal effect by foliage application, Wagner pot (Table 18, symbol D); type: in vivo, chinese sprangletop (Leptochloa chinensis)
How it was run: as §2

[6] = test system: rice flat sedge; assay: Test Example 3: herbicidal effect by foliage application, Wagner pot (Table 18, symbol E); type: in vivo, rice flat sedge (Cyperus iria)
How it was run: as §2

[7] = test system: southern crabgrass; assay: Test Example 4: herbicidal effect by soil treatment (Table 19, symbol F); type: in vivo, southern crabgrass (Digitaria ciliaris); conditions: amount of applied herbicide 320 g/ha
How it was run: (§3)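 Emulsion of test compound, water-diluted to predetermined amount, sprayed on soil after sowing (seed depth ~1.5 cm, sterilized diluvial soil). Greenhouse, 25–30° C. Effect graded at three weeks post-spray.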

[8] = test system: green foxtail; assay: Test Example 4: herbicidal effect by soil treatment (Table 19, symbol G); type: in vivo, green foxtail (Setaria viridis); conditions: amount of applied herbicide 320 g/ha
How it was run: as §3

[9] = test system: barnyard grass; assay: Test Example 4: herbicidal effect by soil treatment (Table 19, symbol H); type: in vivo, barnyard grass (Echinochloa crus-galli); conditions: amount of applied herbicide 320 g/ha
How it was run: as §3

[10] = test system: wild oat; assay: Test Example 4: herbicidal effect by soil treatment (Table 19, symbol I); type: in vivo, wild oat (Avena fatua); conditions: amount of applied herbicide 320 g/ha
How it was run: as §3

[11] = test system: blackgrass; assay: Test Example 4: herbicidal effect by soil treatment (Table 19, symbol J); type: in vivo, blackgrass (Alopecurus myosuroides); conditions: amount of applied herbicide 320 g/ha
How it was run: as §3

[12] = test system: Italian ryegrass; assay: Test Example 4: herbicidal effect by soil treatment (Table 19, symbol K); type: in vivo, Italian ryegrass (Lolium multiflorum); conditions: amount of applied herbicide 320 g/ha
How it was run: as §3

[13] = test system: windgrass; assay: Test Example 4: herbicidal effect by soil treatment (Table 19, symbol L); type: in vivo, windgrass (Apera spica-venti); conditions: amount of applied herbicide 320 g/ha
How it was run: as §3

[14] = test system: velvetleaf; assay: Test Example 4: herbicidal effect by soil treatment (Table 19, symbol M); type: in vivo, velvetleaf (Abutilon theophrasti); conditions: amount of applied herbicide 320 g/ha
How it was run: as §3

[15] = test system: redroot pigweed; assay: Test Example 4: herbicidal effect by soil treatment (Table 19, symbol N); type: in vivo, redroot pigweed (Amaranthus retroflexus); conditions: amount of applied herbicide 320 g/ha
How it was run: as §3

[16] = test system: lambsquarters; assay: Test Example 4: herbicidal effect by soil treatment (Table 19, symbol O); type: in vivo, lambsquarters (Chenopodium album); conditions: amount of applied herbicide 320 g/ha
How it was run: as §3

[17] = test system: chickweed; assay: Test Example 4: herbicidal effect by soil treatment (Table 19, symbol P); type: in vivo, common chickweed (Stellaria media); conditions: amount of applied herbicide 320 g/ha
How it was run: as §3

[18] = test system: persian speedwell; assay: Test Example 4: herbicidal effect by soil treatment (Table 19, symbol R); type: in vivo, Persian speedwell (Veronica persica); conditions: amount of applied herbicide 320 g/ha
How it was run: as §3

[19] = test system: southern crabgrass; assay: Test Example 5: herbicidal effect by foliage application, plastic box (Table 20, symbol F); type: in vivo, southern crabgrass (Digitaria ciliaris); conditions: foliage application, 320 g/ha, three weeks after application
How it was run: (§4)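 Post-emergence foliar test in sterilized diluvial soil. Compound applied as water-diluted emulsion at a predetermined rate to 14-day-old plants; evaluation at three weeks.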

[20] = test system: green foxtail; assay: Test Example 5: herbicidal effect by foliage application, plastic box (Table 20, symbol G); type: in vivo, green foxtail (Setaria viridis); conditions: foliage application, 320 g/ha, three weeks after application
How it was run: as §4

[21] = test system: barnyard grass; assay: Test Example 5: herbicidal effect by foliage application, plastic box (Table 20, symbol H); type: in vivo, barnyard grass (Echinochloa crus-galli); conditions: foliage application, 320 g/ha, three weeks after application
How it was run: as §4

[22] = test system: wild oat; assay: Test Example 5: herbicidal effect by foliage application, plastic box (Table 20, symbol I); type: in vivo, wild oat (Avena fatua); conditions: foliage application, 320 g/ha, three weeks after application
How it was run: as §4

[23] = test system: blackgrass; assay: Test Example 5: herbicidal effect by foliage application, plastic box (Table 20, symbol J); type: in vivo, blackgrass (Alopecurus myosuroides); conditions: foliage application, 320 g/ha, three weeks after application
How it was run: as §4

[24] = test system: Italian ryegrass; assay: Test Example 5: herbicidal effect by foliage application, plastic box (Table 20, symbol K); type: in vivo, Italian ryegrass (Lolium multiflorum); conditions: foliage application, 320 g/ha, three weeks after application
How it was run: as §4

[25] = test system: windgrass; assay: Test Example 5: herbicidal effect by foliage application, plastic box (Table 20, symbol L); type: in vivo, windgrass (Apera spica-venti); conditions: foliage application, 320 g/ha, three weeks after application
How it was run: as §4

[26] = test system: velvetleaf; assay: Test Example 5: herbicidal effect by foliage application, plastic box (Table 20, symbol M); type: in vivo, velvetleaf (Abutilon theophrasti); conditions: foliage application, 320 g/ha, three weeks after application
How it was run: as §4

[27] = test system: redroot pigweed; assay: Test Example 5: herbicidal effect by foliage application, plastic box (Table 20, symbol N); type: in vivo, redroot pigweed (Amaranthus retroflexus); conditions: foliage application, 320 g/ha, three weeks after application
How it was run: as §4

[28] = test system: lambsquarters; assay: Test Example 5: herbicidal effect by foliage application, plastic box (Table 20, symbol O); type: in vivo, lambsquarters (Chenopodium album); conditions: foliage application, 320 g/ha, three weeks after application
How it was run: as §4

[29] = test system: chickweed; assay: Test Example 5: herbicidal effect by foliage application, plastic box (Table 20, symbol P); type: in vivo, common chickweed (Stellaria media); conditions: foliage application, 320 g/ha, three weeks after application
How it was run: as §4

[30] = test system: persian speedwell; assay: Test Example 5: herbicidal effect by foliage application, plastic box (Table 20, symbol R); type: in vivo, Persian speedwell (Veronica persica); conditions: foliage application, 320 g/ha, three weeks after application
How it was run: as §4

[31] = amount of applied herbicide 320 g/ha

Cc1nn(C)c(=O)c(-c2c(-c3ccc(OC(F)(F)F)cc3)oc3ccc(F)cc23)c1O [9-033]
Herbicidal effect, A: late watergrass [1]: 2 (Herbicidal rate of 20% or more and less than 40%) | Herbicidal effect, B: Japanese bulrush [2]: 0 (Herbicidal rate of 5% or less (almost no effect)) | Herbicidal effect, C: oval-leafed pondweed [3]: 0 (Herbicidal rate of 5% or less (almost no effect)) | Herbicidal effect on H (barnyard grass), foliage application [4, 31]: 4 (Herbicidal rate of 70% or more and less than 90%) | Herbicidal effect on D (Chinese sprangletop), foliage application [5, 31]: 3 (Herbicidal rate of 40% or more and less than 70%) | Herbicidal effect on E (rice flat sedge), foliage application [6, 31]: 5 (Herbicidal rate of 90% or more (almost completely withered))

COc1ccccc1-c1sc2cc(OS(=O)(=O)N(C)C)ccc2c1-c1c(O)c(C)nn(C)c1=O [3-134]
Herbicidal effect, A: late watergrass [1]: 3 (Herbicidal rate of 40% or more and less than 70%) | Herbicidal effect, B: Japanese bulrush [2]: 4 (Herbicidal rate of 70% or more and less than 90%) | herbicidal effect on barnyard grass (H) ([4]; 320 g/ha): 3 (Herbicidal rate of 40% or more and less than 70%) | herbicidal effect on Chinese sprangletop (D) ([5]; 320 g/ha): 4 (Herbicidal rate of 70% or more and less than 90%) | herbicidal effect on rice flat sedge (E) ([6]; 320 g/ha): 3 (Herbicidal rate of 40% or more and less than 70%) | Herbicidal effect by soil treatment, F: southern crabgrass [7]: 0 (Herbicidal rate of 5% or less (almost no effect)) | Herbicidal effect by soil treatment, G: green foxtail [8]: 0 (Herbicidal rate of 5% or less (almost no effect)) | Herbicidal effect by soil treatment, H: barnyard grass [9]: 0 (Herbicidal rate of 5% or less (almost no effect)) | Herbicidal effect by soil treatment, I: wild oat [10]: 0 (Herbicidal rate of 5% or less (almost no effect)) | Herbicidal effect by soil treatment, J: blackgrass [11]: 4 (Herbicidal rate of 70% or more and less than 90%) | Herbicidal effect by soil treatment, K: Italian ryegrass [12]: 4 (Herbicidal rate of 70% or more and less than 90%) | Herbicidal effect by soil treatment, L: windgrass [13]: 5 (Herbicidal rate of 90% or more (almost completely withered)) | Herbicidal effect by soil treatment, M: velvetleaf [14]: 1 (Herbicidal rate of 5% or more and less than 20%) | Herbicidal effect by soil treatment, N: redroot pigweed [15]: 5 (Herbicidal rate of 90% or more (almost completely withered)) | Herbicidal effect by soil treatment, O: lambsquarters [16]: 3 (Herbicidal rate of 40% or more and less than 70%) | Herbicidal effect by soil treatment, P: chickweed [17]: 1 (Herbicidal rate of 5% or more and less than 20%) | Herbicidal effect by soil treatment, R: persian speedwell [18]: 3 (Herbicidal rate of 40% or more and less than 70%) | F: southern crabgrass, herbicidal effect grade [19]: 4 (Herbicidal rate of 70% or more and less than 90%) | G: green foxtail, herbicidal effect grade [20]: 3 (Herbicidal rate of 40% or more and less than 70%) | H: barnyard grass, herbicidal effect grade [21]: 0 (Herbicidal rate of 5% or less (almost no effect)) | I: wild oat, herbicidal effect grade [22]: 2 (Herbicidal rate of 20% or more and less than 40%) | J: blackgrass, herbicidal effect grade [23]: 4 (Herbicidal rate of 70% or more and less than 90%) | K: Italian ryegrass, herbicidal effect grade [24]: 4 (Herbicidal rate of 70% or more and less than 90%) | L: windgrass, herbicidal effect grade [25]: 5 (Herbicidal rate of 90% or more (almost completely withered)) | M: velvetleaf, herbicidal effect grade [26]: 3 (Herbicidal rate of 40% or more and less than 70%) | N: redroot pigweed, herbicidal effect grade [27]: 4 (Herbicidal rate of 70% or more and less than 90%) | O: lambsquarters, herbicidal effect grade [28]: 3 (Herbicidal rate of 40% or more and less than 70%) | P: chickweed, herbicidal effect grade [29]: 5 (Herbicidal rate of 90% or more (almost completely withered)) | R: persian speedwell, herbicidal effect grade [30]: 5 (Herbicidal rate of 90% or more (almost completely withered))

From patent US20230085307A1, “PYRIDAZINONE COMPOUND AND HERBICIDE” (NISSAN CHEMICAL CORPORATION, priority 2019, published 2023)
